Earlier results on 5 molecules are cited in patent US20060089343A1, “Superoxide dismutase mimics for the treatment of ocular disorders and diseases” (ALCON, INC., priority 2002, published 2006).

The conditions of data set [1]: albino rats.
For data set [2] the following is noted: diabetogenic T-cell clone.
The subject of another data set is IL-6 and MIP-2. Conditions: administration after induction of cerebral ischemia.
The conditions of data set [3]: given either before or after induction of cerebral ischemia.
For data set [4] the following is noted: diabetic rats.

Turning to `CC1(C)CC(O)CC(C)(C)N1[O]` [4-hydroxy-2,2,6,6-tetramethylpiperidine-1-oxyl], in data set [1], the light-induced retinal damage entry is reported as “inhibited light-induced retinal damage”.

For the molecule `CCN1C=CC=C/C1=C1/C2=NC(=C(c3cccc[n+]3CC)C3=NC(=C(c4cccc[n+]4CC)c4ccc([n-]4)C(c4cccc[n+]4CC)=C4C=CC1=N4)C=C3)C=C2.[Cl-].[Cl-].[Cl-].[Cl-].[Cl-].[Mn+3]` [AEOL10113], the onset of diabetes entry in data set [2] was “delay the onset of diabetes”.

As to `CCn1cc[n+](CC)c1C1=C2C=CC3=[N+]2[Mn]24[n]5c1ccc5C(c1n(CC)cc[n+]1CC)=C1C=CC(=[N+]12)C(c1n(CC)cc[n+]1CC)=c1ccc([n]14)=C3c1n(CC)cc[n+]1CC` [Compound 1], the “expression of pro-inflammatory proteins, such as IL-6 and MIP-2” value in the data set with IL-6 and MIP-2 is listed as “attenuation of the increased expression”.

Consider `CC[n+]1ccccc1C1=C2C=CC3=[N+]2[Mn]24[n]5c1ccc5C(c1cccc[n+]1CC)=C1C=CC(=[N+]12)C(c1cccc[n+]1CC)=c1ccc([n]14)=C3c1cccc[n+]1CC` [Compound 2], for which the infarct volume entry in data set [3] is reported as “reduces infarct volume”.

As for `[Cl-].[Cl-].[Mn+2].c1cc2nc(c1)CN[C@@H]1CCCC[C@H]1NCCN[C@@H]1CCCC[C@H]1NC2` [Compound M40403], the “vascular and neural dysfunction” value in data set [4] was “prevented vascular and neural dysfunction”.
